Source: publication PMC5412315, “Wedelolactone Acts as Proteasome Inhibitor in Breast Cancer Cells” (International Journal of Molecular Sciences, 2017)

Assays:
[1] = target: T1, 26S proteasome purified from MDA-MB-231 cells (Homo sapiens, UniProt P28074); assay: Proteasome activity in vitro, purified 26S proteasome; assay type: biochemical; details: Suc-LLVY-AMC, 1 h, read-out: IC50, chymotrypsin-like activity
T1 construct: Human 26S proteasome was purified from 8 × 10^6 of MDA-MB-231 cells; endogenous in cells; host or cells: MDA-MB-231 cells; purified with The Rapid 26S Proteasome Purification Kit (J4310, UBPBio)
Method: (§1) Figure 2 Wedelolactone inhibits chymotrypsin-like, trypsin-like, and caspase-like activities of purified 26S and 20S proteasome complexes in vitro. Wedelolactone (w) was added at various concentrations to reaction mixture containing either (A) 26S proteasome purified from MDA-MB-231 cells or (B) commercially available 20S proteasome, and fluorogenic substrate (Suc-LLVY-AMC for testing chymotrypsin-like, Z-LLE-AMC for caspase-like, and Boc-LRR-AMC for trypsin-like activities). Fluorescence was measured after 1 h incubation. MG132 was used as a positive control. The data represent the mean values from three independent experiments. Error bars indicate the SD. * indicates a significant (p < 0.05) difference in proteolytic activities between reaction mixtures containing wedelolactone/MG132 and DMSO.
Human 26S proteasome was purified from 8 × 10^6 of MDA-MB-231 cells using The Rapid 26S Proteasome Purification Kit (J4310, UBPBio) according to manufacturer’s instructions.
(§2) Chymotrypsin-like, trypsin-like and caspase-like proteasome activities were determined using Proteasome Activity Fluorometric Assay Kit II (J4120, UBPBio) according to manufacturer’s instructions. […] Fluorescence was measured by TECAN infinite 200 plate reader (TECAN, Mannedorf, Switzerland) for 1 h at 37 °C.

[2] = target: T2, proteasome in MDA-MB-468 cells (Homo sapiens, UniProt P28074); assay: Proteasome activity in cell extracts of treated MDA-MB-468 cells (fluorogenic substrates); assay type: cell-based; details: MDA-MB-468 cells treated 10 h, cell extract, Suc-LLVY-AMC; read-out: IC50, chymotrypsin-like activity of proteasome
T2 construct: endogenous in cells; host or cells: MDA-MB-231, MDA-MB-468 or T47D cells (treated 10 h, then lysed)
T2 sequence (P28074 60-263): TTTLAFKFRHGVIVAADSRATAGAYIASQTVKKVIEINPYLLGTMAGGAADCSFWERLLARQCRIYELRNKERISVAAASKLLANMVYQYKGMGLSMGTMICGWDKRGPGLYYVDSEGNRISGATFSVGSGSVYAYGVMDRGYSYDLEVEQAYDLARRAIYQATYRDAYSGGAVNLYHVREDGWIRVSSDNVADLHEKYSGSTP
T2 sequence (P28072 1-239 partner): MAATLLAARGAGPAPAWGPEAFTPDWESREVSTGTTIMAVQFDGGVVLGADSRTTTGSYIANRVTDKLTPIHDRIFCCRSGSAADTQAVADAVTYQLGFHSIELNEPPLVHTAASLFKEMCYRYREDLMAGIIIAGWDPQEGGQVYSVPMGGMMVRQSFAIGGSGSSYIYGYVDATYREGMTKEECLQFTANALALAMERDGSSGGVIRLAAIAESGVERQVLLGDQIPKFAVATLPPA
T2 sequence (Q99436 44-277 partner): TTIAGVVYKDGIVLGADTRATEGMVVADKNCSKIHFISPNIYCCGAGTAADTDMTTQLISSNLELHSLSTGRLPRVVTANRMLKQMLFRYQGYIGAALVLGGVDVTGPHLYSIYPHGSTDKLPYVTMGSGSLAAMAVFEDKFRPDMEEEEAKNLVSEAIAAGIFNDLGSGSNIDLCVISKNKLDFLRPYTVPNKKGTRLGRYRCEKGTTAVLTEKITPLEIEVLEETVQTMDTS
Method: (§3) Figure 1 Wedelolactone inhibits chymotrypsin-like, trypsin-like and caspase-like activities in breast cancer cells. MDA-MB-231 (A); MDA-MB-468 (B); and T47D (C) cells were treated with various concentrations of wedelolactone (w) for 10 h. Proteasome activities were evaluated in cell extracts using the activity-specific fluorogenic substrates (Suc-LLVY-AMC for testing chymotrypsin-like, Z-LLE-AMC for caspase-like, and Boc-LRR-AMC for trypsin-like activities). Treatment with MG132 served as a positive control. The data represent the mean values from three independent experiments. Error bars indicate the SD. * indicates a significant (p < 0.05) difference between wedelolactone-/MG132- and DMSO-treated cells.
(§4) MDA-MB-231, MDA-MB-468 and T47D (6 × 10^5) cells were seeded in 5 mL of culture media, exposed to various concentrations of wedelolactone, DMSO or 10 μM MG132 for 10 h. Cells were harvested, resuspended in cell lysis buffer (40 mM Tris, pH 7.2, 50 mM NaCl, 2 mM β-mercaptoethanol, 2 mM ATP, 5 mM MgCl, 10% Glycerol) and briefly sonicated using an Ultrasonic Processor UP100H (Hielscher, Ringwood, NJ, USA). Cell lysates were cleared by centrifugation and protein concentration in supernatant was determined using DC protein assay (Biorad, Hercules, CA, USA). […] Fluorescence was measured by TECAN infinite 200 plate reader (TECAN) for 1 h at 37 °C.

[3] = test system: p21, p27, p53, Bax and multiubiquitinated proteins in MDA-MB-231, MDA-MB-468 and T47D cells; assay: Immunoblotting of polyubiquitinated and short-lived proteins; assay type: cell-based, human; details: 10 h, all three cell lines
Method: (§5) Figure 3 Multiubiquitinated and high turnover proteins accumulate in wedelolactone-treated breast cancer cells. MDA-MB-231, MDA-MB-468, and T47D cells were treated with various concentrations of wedelolactone or solvent for 10 h. (A) Protein extracts were subsequently analyzed by SDS-PAGE and immunoblotting using p21-, p27-, p53-, Bax-, and ubiquitin-specific antibodies. Treatment with MG132 served as a positive control; (B) Transcripts of CDKN1A, CDKN1B, TP53 and BAX genes were quantified using qPCR.
5 × 10^5 cells were seeded in 6-well plates. The next day, the cells were exposed to various concentrations of wedelolactone, DMSO, or 10 μM MG132 for 10 h. Cells were harvested and lysed as described previously. Cell lysates were subjected to SDS–PAGE and immunoblotted. Sample loading was normalized according to protein concentration determined by DC protein assay (Biorad). Blots were probed with anti-ubiquitin (3933S; Cell Signaling Technology, Inc., Beverly, MA, USA), anti-p21, anti-p27 (sc-817 and sc-528; Santa Cruz Biotechnology Inc., Santa Cruz, CA, USA), anti-p53, anti-Bax or anti-Myc-Tag (9282, 5023 and 2276S; Cell Signaling Technology), anti-α-tubulin antibodies (T9026; Sigma-Aldrich), and secondary antibodies conjugated with peroxidase (Sigma-Aldrich). […]

breast cancer cell lines = test system: breast cancer cell lines; set-up: method as in PMID 21315506, PMID 22733624; details: all three breast cancer cell lines, at concentrations corresponding to the IC50 values; cited from earlier work
[4] = target: T3, proteasome in breast cancer cells (MDA-MB-231, MDA-MB-468, T47D) (Homo sapiens, UniProt P28072+P28074+Q99436); assay: Proteasome activity in breast cancer cell lines (statements on all three lines); assay type: cell-based; details: 10 h, cell extracts
T3 construct: endogenous in cells; host or cells: MDA-MB-231, MDA-MB-468 and T47D cells; in A12 transiently transfected with hCTR1-N-Myc, with or without copper loading, while the proteasome itself stays endogenous
T3 sequence (P28074 60-263): T2 sequence (P28074 60-263)
T3 sequence (P28072 1-239): T2 sequence (P28072 1-239 partner)
T3 sequence (Q99436 44-277): T2 sequence (Q99436 44-277 partner)
Method: as §3, §4

[5] = test system: purified 26S and 20S proteasome complexes; assay: Proteasome activity in vitro (statements on purified 26S and 20S together); assay type: biochemical
Method: as §1, §2

[6] = target: T4, proteasome in MDA-MB-231 cells (Homo sapiens, UniProt P28074); assay: Proteasome activity in cell extracts of treated MDA-MB-231 cells (fluorogenic substrates); assay type: cell-based; details: MDA-MB-231 cells treated 10 h, cell extract, Suc-LLVY-AMC; read-out: IC50, chymotrypsin-like activity of proteasome
T4 construct: endogenous in cells; host or cells: MDA-MB-231, MDA-MB-468 or T47D cells (treated 10 h, then lysed)
T4 sequence (P28074 60-263): T2 sequence (P28074 60-263)
T4 sequence (P28072 1-239 partner): T2 sequence (P28072 1-239 partner)
T4 sequence (Q99436 44-277 partner): T2 sequence (Q99436 44-277 partner)
Method: as §3, §4

[7] = test system: MDA-MB-231, MDA-MB-468 and T47D cells over-expressing CTR1; assay: Cell mortality by PI exclusion assay (flow-cytometry) in copper-loaded vs control cells; assay type: cell-based, human; details: 48 h, CTR1 overexpression with/without 25 μM copper sulfate pretreatment 24 h
Method: (§6) Figure 4 Copper loading enhances cytotoxicity and ROS production in wedelolactone-treated breast cancer cells. MDA-MB-231, MDA-MB-468, and T47D cells were transiently transfected with pCNDA3.1-hCTR1-N-Myc (CTR1) or control pCDNA3.1 plasmids (cmv), pretreated with copper sulfate (Cu) for 24 h and subsequently treated with wedelolactone (w) or solvent (DMSO) in fresh media. (A) Cells were harvested and expression of exogenous CTR1 protein was confirmed by SDS-PAGE followed by immunoblotting with the Myc-Tag antibody; (B) Relative copper concentration in cell lysates was analyzed by SALD ICP MS. Data for copper are presented as an integrated ^63Cu/^60Ni signal ratio. (C) Cell mortality and (D) ROS production were evaluated after PI/DHE staining using flow-cytometry. The data represent the mean values from three independent experiments. Error bars indicate the SD. * indicates a significant (p < 0.05) difference.
3 × 10^5 cells were seeded in 6-well plates. After 24 h, transient transfection was performed, using 3 μL of Lipofectamine LTX reagent (Invitrogen) with a mixture containing 1.5 μg of pCNDA3.1-hCTR1-N-Myc or control pCDNA3.1 plasmid and 1.5 μL of PLUS reagent (Invitrogen). […] Cytotoxicity of wedelolactone was analyzed 48 h later by PI staining (1 μg/mL) using flow-cytometry as described previously.

proteasome in T47D cells = target: T5, proteasome in T47D cells (Homo sapiens, UniProt P28074); assay: Proteasome activity in cell extracts of treated T47D cells (fluorogenic substrates); assay type: cell-based; details: T47D cells treated 10 h, cell extract, Suc-LLVY-AMC; read-out: IC50, chymotrypsin-like activity of proteasome
T5 construct: endogenous in cells; host or cells: MDA-MB-231, MDA-MB-468 or T47D cells (treated 10 h, then lysed)
T5 sequence (P28074 60-263): T2 sequence (P28074 60-263)
T5 sequence (P28072 1-239 partner): T2 sequence (P28072 1-239 partner)
T5 sequence (Q99436 44-277 partner): T2 sequence (Q99436 44-277 partner)
Method: as §3, §4

bovine 20S proteasome = target: T6, bovine 20S proteasome (Bos taurus, UniProt Q32KL2); assay: Proteasome activity in vitro, commercially available 20S proteasome; assay type: biochemical; details: Suc-LLVY-AMC, 1 h, read-out: IC50, chymotrypsin-like activity
T6 construct: purchased UBPBio A1400
Method: as §1, §2

[8] = test system: CDKN1A, CDKN1B, TP53 and BAX genes in MDA-MB-231, MDA-MB-468 and T47D cells; assay: qPCR of CDKN1A, CDKN1B, TP53 and BAX transcripts; assay type: cell-based, human; details: 10 h, all three cell lines
Method: as §5
1 × 10^6 cells were seeded in 5 mL dishes. Next day, the cells were exposed to various concentrations of wedelolactone or DMSO for 10 h. Cells were harvested and total RNA was isolated using GenElute Mammalian Total RNA Miniprep kit (Sigma-Aldrich). For cDNA synthesis, 1 μg of total RNA was reverse-transcribed using the QuantiTect Reverse Transcription kit (Qiagen, Hilden, Germany) according to the manufacturer’s instructions in a final reaction volume of 20 μL. Expression of CDKN1A, CDKN1B, TP53 and BAX genes was determined using the target-specific primers (Table S1) and KAPA SYBR FAST qPCR MASTER MIX (KK460, Kapa Biosystems, Cambridge, MA, USA) on LightCycler 480 II (Roche, Basel, Switzerland). Expression of the reference GAPDH gene (probe 4326317E, ThermoFisher Scientific, Waltham, MA, USA) was used for data normalization.

[9] = test system: MDA-MB-231, MDA-MB-468 and T47D cells over-expressing CTR1; assay: ROS production by DHE staining (flow-cytometry) in copper-loaded vs control cells; assay type: cell-based, human; details: 10 h, CTR1 overexpression with/without 25 μM copper sulfate pretreatment 24 h
Method: as §6
3 × 10^5 cells were seeded in 6-well plates. After 24 h, transient transfection was performed as described in chapter 4.6. […] Reactive oxygen species (ROS) were measured using flow-cytometry (BD FACSVerse, BD Biosciences, Franklin Lakes, NJ, USA) at an excitation wavelength of 485 nm and an emission wavelength of 538 nm. Data were analyzed using BD FACSuite software (BD Biosciences).

In the case of `COc1cc(O)c2c(c1)oc(=O)c1c3cc(O)c(O)cc3oc21` [Wedelolactone], the IC50 [1] is reported as 9.97 µM, the IC50 [2] is reported as 12.8 µM and the “Level of p21, p27, p53, Bax and multiubiquitinated proteins” value [3] is reported as “dose-dependent accumulation”. For the same compound, the “Growth arrest and apoptosis” value (breast cancer cell lines) was “induced growth arrest and apoptosis”, the “Inhibition of chymotrypsin-like, trypsin-like and caspase-like activities of proteasome in cells” value [4] was “inhibited all three proteolytic activities of proteasome” and the “Inhibition of chymotrypsin-like, trypsin-like and caspase-like activities in vitro” value ([5]; purified 26S and 20S proteasome, 1 h) was “inhibited all three proteasomal activities in vitro in a dose-dependent manner”. The IC50 ([5]; summary over purified 26S and 20S proteasome, read-out: IC50 values for chymotrypsin-like inhibitory activity, in vitro) was less than 10 µM, the IC50 [6] was 27.8 µM and the “Cytotoxicity (cell mortality), effect of copper loading” value [7] was “enhanced by copper loading”. The IC50 (proteasome in T47D cells) was 19.5 µM, the IC50 (bovine 20S proteasome) was 6.13 µM and the “Expression of CDKN1A, CDKN1B, TP53 and BAX genes” value [8] was “did not affect expression of any of these genes”. For the same compound, the “ROS production, effect of copper loading” value [9] was “Copper-loaded cells produced more ROS”.
